Reference: patent publication EP0496452A1, “Novel endothelin receptor antagonists isolated from microbispora” (MERCK & CO. INC., priority 1991, dated 1992)
*1 amine or outer side, *2 acyl side, *3 side chain or, on linkers, in order; H or OH if unused. Where a SMILES comes first, the peptide text is derived from it. Bridges are numbered along the chain shown (N, C = ends). [ ]: non-standard residue; d: D form. The star is where a group is joined. dPhg(3,5-diOH) = N[C@@H](C(=O)O)c1cc(O)cc(O)c1; X2 = O=C([C@@H](N[*:1])c1cc(O)cc(O)c1)[*:2]; d(aThr) = C[C@@H](O)[C@@H](N)C(=O)O; Pyrrole2CO = O=C(c1ccc[nH]1)*; X1 = O=C(c1ccc(Cl)[nH]1)*

Assays:
ET-A = target: T1, ET-A (Rattus norvegicus, UniProt P26684); experiment: 125I-ET-1 endothelin receptor binding assay, rat aorta membranes; settings: 150 pM 125I-ET-1, 37° C
T1 construct: Membranes were prepared from rat hippocampus, and rat or cow aorta; from tissue; host or cells: rat aorta membranes
T1 sequence (P26684 21-426): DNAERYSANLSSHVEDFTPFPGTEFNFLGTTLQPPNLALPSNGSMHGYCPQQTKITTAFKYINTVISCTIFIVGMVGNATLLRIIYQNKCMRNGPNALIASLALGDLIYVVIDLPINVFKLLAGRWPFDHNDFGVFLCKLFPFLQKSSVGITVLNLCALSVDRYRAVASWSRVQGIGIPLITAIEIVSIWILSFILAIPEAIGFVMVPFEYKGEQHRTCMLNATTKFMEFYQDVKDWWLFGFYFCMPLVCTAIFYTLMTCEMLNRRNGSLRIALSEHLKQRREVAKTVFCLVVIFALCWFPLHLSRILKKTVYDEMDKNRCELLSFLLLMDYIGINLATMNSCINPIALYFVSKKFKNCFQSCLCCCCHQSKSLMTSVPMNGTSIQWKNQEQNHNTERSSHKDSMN
Experimental: (§1) The binding of cyclopeptides I, II and III to the endothelin receptor was determined in accordance with the assay described in detail immediately below. It is similar to the assay described in Ambar et al. (1989) Biochem. Biophys. Res. Commun. 158, 195-201; and Khoog et al. (1989) Febs Letters, 253, 199-202.
(§2) Endothelin-1 (ET-1) was purchased from Peptides International (Louisville, KY ). ¹²⁵I-ET-1 (2000 Ci/mMol) was purchased from Amersham (Arlington Heights, IL).
(§3) Membranes were prepared from rat hippocampus, and rat or cow aorta. Dissected tissue was homogenized twice for 30 seconds with a Brinkman Polytron [setting 10, Generator PTA 20 TS (Westbury, NY)] in ice cold 250 mM sucrose, 50 mM Tris-HCl pH 7.4 with 7 µg/ml pepstatin A and 0.5 µg/ml leupeptin. The crude particulate matter was removed by centrifugation at 750 x g for 10 min. The membranes were sedimented from the supernatant fraction by centrifugation at 48,000 g for 30 min. Membrane pellets were resuspended in the above buffer with protease inhibitors. Aliquots of these suspensions were stored at -70° C.
(§4) Binding studies with ¹²⁵I-ET-1 were conducted in 50 mM potassium phosphate pH 7.5 with 0.1% bovine serum albumin (BSA) using 12-well Shatron (Lier, Norway) cell harvester tube strips. ¹²⁵I-ET-1 concentrations were 25 pM for hippocampus, 150 pM for aorta. Samples were dissolved in dimethylsulfoxide (DMSO). Upon addition of the sample, the final DMSO concentration was 3%. Membranes were added last to start the binding reaction. The reaction mixture was incubated at 37° C for 30 or 60 minutes. Binding reactions were terminated using a Skatron cell harvester by filtration through glass fiber filter pads presoaked with 2% BSA. The samples on the pads were immediately washed with 150 mM NaCl 0.1% BSA. The pads were punched out and radioactivity was evaluated in a Beckman Gamma 5500 gamma counter (Fullerton, CA). Nonspecific binding was determined in the presence of 100 nM ET-1. The results of this binding assay are set out in the table of values below: TABLE VI

ET-B = target: T2, ET-B (Rattus norvegicus, UniProt P21451); experiment: 125I-ET-1 endothelin receptor binding assay, rat hippocampus membranes; settings: 25 pM 125I-ET-1, 37° C
T2 construct: Membranes were prepared from rat hippocampus, and rat or cow aorta; from tissue; host or cells: rat hippocampus membranes
T2 sequence (P21451 27-442): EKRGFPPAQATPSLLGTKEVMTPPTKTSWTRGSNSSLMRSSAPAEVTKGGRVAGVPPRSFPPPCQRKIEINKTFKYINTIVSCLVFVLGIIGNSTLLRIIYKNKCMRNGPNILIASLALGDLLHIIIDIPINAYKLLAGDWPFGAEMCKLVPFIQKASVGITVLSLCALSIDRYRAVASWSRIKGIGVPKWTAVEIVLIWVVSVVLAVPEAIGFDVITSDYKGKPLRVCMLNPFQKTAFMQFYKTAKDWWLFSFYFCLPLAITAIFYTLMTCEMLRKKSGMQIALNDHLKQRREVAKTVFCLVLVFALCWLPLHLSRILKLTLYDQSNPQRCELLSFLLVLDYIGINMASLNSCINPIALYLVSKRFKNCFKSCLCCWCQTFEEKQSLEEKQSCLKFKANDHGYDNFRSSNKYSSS
Experimental: as §1, §2, §3, §4

[1] = Immunosuppressant activity (assay not described); settings: may be attributable to assay differences

C[C@H]1NC(=O)[C@@H](Cc2ccccc2)NC(=O)[C@H](NC(=O)[C@H](Cc2ccccc2)NC(=O)c2ccc(Cl)[nH]2)[C@@H](C)OC(=O)[C@@H](c2cc(O)cc(O)c2)NC(=O)[C@@H](c2cc(O)cc(O)c2)NC1=O [Compound III] (X1-F[d(aThr)][dF][dA][dPhg(3,5-diOH)][dPhg(3,5-diOH)]; ester 2-C)
Ki (ET-A): 200 nM | Ki (ET-B): 500 nM | immunosuppressant activity [1]: no significant immunosuppressant activity

C[C@H]1NC(=O)[C@@H](Cc2ccccc2)NC(=O)[C@H](NC(=O)[C@H](Cc2ccccc2)NC(=O)c2ccc[nH]2)[C@@H](C)OC(=O)[C@@H](c2cc(O)cc(O)c2)NC(=O)[C@@H](c2cc(O)cc(O)c2)NC1=O [Compound I] (Pyrrole2CO-F[d(aThr)][dF][dA][dPhg(3,5-diOH)][dPhg(3,5-diOH)]; ester 2-C)
Ki (ET-A): 100 nM | Ki (ET-B): 200 nM

C[C@H]1NC(=O)[C@@H](Cc2ccccc2)NC(=O)[C@H](NC(=O)[C@H](Cc2ccccc2)NC(=O)c2ccc(Cl)[nH]2)[C@@H](C)OC(=O)[C@H](c2cc(O)cc(O)c2)NC(=O)[C@@H](c2cc(O)cc(O)c2)NC1=O [Compound II] (X1-F[d(aThr)][dF][dA][dPhg(3,5-diOH)][X2]; ester 2-C)
Ki (ET-A): 3000 nM | Ki (ET-B): 3000 nM | immunosuppressant activity [1]: no significant immunosuppressant activity
